Here are results for 7 compounds from PubChem BioAssay (NCI).

Among the test systems are XF 498 CNS; DMS 273 small cell lung; M19-MEL melanoma; KM20L2 colon; DMS 114 small cell lung; HOP-18 NSCLC; SNB-78 CNS; DLD-1 colon; RXF-631 renal.
Common to all, as to test: NCI tumour cell line growth inhibition, 48 h

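Cells were grown in 96-well plates and exposed to each compound for 48 hours at five concentrations; endpoints were interpolated linearly between bracketing concentrations, or set to the highest concentration if not reached. Definition used: TGI = concentration required for complete inhibition of growth.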

In the case of `COC(=O)[C@@]12OC[C@]34C([C@@H](O)C1O)[C@@]1(C)CC(=O)C(OC(=O)CC(C)C(F)(F)F)=C(C)C1C[C@H]3OC(=O)[C@H](O)[C@H]42` (some centres undefined), the TGI in the assay on XF 498 CNS was 5.18 µM; in the assay on DMS 273 small cell lung, 11.2 µM; in the assay on M19-MEL melanoma, 6.25 µM; with KM20L2 colon, > 62.5 µM; in the assay with DMS 114 small cell lung it was 18.5 µM; in the assay on HOP-18 NSCLC it was 29.2 µM. Further, the TGI in the assay on SNB-78 CNS was > 62.5 µM.

Take `C1CSCCSCCCS[C@@H]2CCCCC2SC1` (some centres undefined): the TGI in the assay with DMS 273 small cell lung is > 100 µM; in the assay with DLD-1 colon it was > 100 µM; in the assay on M19-MEL melanoma, > 100 µM; with KM20L2 colon, > 100 µM; in the assay with DMS 114 small cell lung it was 65.4 µM; with HOP-18 NSCLC, > 100 µM. In the assay with SNB-78 CNS, the TGI is > 100 µM.

On to `O=C1c2ccccc2N2OC3(N4CCOCC4)CCCC3C12c1ccccc1` (centres undefined), for which the TGI in the assay with XF 498 CNS, with DMS 273 small cell lung, in the assay on DLD-1 colon, in the assay with M19-MEL melanoma, in the assay with KM20L2 colon and with DMS 114 small cell lung was > 100 µM in each case. For the same compound, the TGI with HOP-18 NSCLC and in the assay on SNB-78 CNS was > 100 µM each time.

Take `CC(C)(CN1CCCCC1)C(=O)/C=C/c1ccc(Br)cc1`: the TGI in the assay on XF 498 CNS was 6.21 µM; in the assay on DMS 273 small cell lung it was 4.92 µM; with DLD-1 colon it was 10.3 µM; in the assay with M19-MEL melanoma, > 51.8 µM; in the assay with KM20L2 colon, 6.85 µM; in the assay on DMS 114 small cell lung, 3.44 µM. For the same compound, the TGI is 6.83 µM with HOP-18 NSCLC and 31.6 µM in the assay on SNB-78 CNS.

As to `CN1CCOC(C(NC(=O)c2ccccc2)c2ccccc2)C1=O` (centres undefined), the TGI in the assay on DMS 273 small cell lung, with DLD-1 colon, in the assay on M19-MEL melanoma, in the assay with KM20L2 colon, with HOP-18 NSCLC and in the assay with SNB-78 CNS was > 100 µM in each case.

As for `C1CCC(N=C2N(C3CCCCC3)C(=NC3CCCCC3)N2C2CCCCC2)CC1`, the TGI in the assay with XF 498 CNS, in the assay on DMS 273 small cell lung, in the assay with DLD-1 colon, in the assay with M19-MEL melanoma, with KM20L2 colon and with DMS 114 small cell lung was > 100 µM in each case. The TGI in the assay with HOP-18 NSCLC is > 100 µM.

Turning to `CCOC(=O)C1S(=O)(=O)OCCOS1(=O)=O`, the TGI in the assay with XF 498 CNS, in the assay on DMS 273 small cell lung, in the assay on RXF-631 renal, in the assay on DLD-1 colon, in the assay with M19-MEL melanoma and in the assay with SNB-78 CNS was > 100 µM in each case.
